The results in this text go back to US20110112135A1, “Imidazo [1,2-A] Pyridine Compounds” (priority 2007, published 2011).

Like-named read-outs stand apart in the source and are kept apart here.

The target of test [1] is T1, human LXRβ (Homo sapiens, UniProt P55055).
T1 construct: biotin (biotinylated); made in house; host or cells: E. coli (crude extract)
T1 sequence (P55055 1-460): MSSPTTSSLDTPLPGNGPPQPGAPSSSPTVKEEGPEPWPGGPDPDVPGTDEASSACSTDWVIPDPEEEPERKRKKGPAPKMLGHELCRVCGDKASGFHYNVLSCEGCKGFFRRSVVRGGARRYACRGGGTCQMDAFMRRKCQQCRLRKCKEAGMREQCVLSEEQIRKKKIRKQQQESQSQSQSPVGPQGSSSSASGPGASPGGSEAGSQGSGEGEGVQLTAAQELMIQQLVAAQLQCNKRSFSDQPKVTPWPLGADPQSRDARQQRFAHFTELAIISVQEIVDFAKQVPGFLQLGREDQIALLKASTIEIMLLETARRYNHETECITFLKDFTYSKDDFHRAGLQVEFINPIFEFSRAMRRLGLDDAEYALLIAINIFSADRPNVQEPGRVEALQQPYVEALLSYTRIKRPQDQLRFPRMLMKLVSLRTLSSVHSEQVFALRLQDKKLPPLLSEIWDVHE
The test can be described thus: Ligand-binding test procedure for human LXRβ (3H T0901317 tracer, flash plates). The note with it: biotinylated hLXRβ from E. coli extract; tracer 3H T0901317. An outline of the steps:
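Biotinylated hLXRβ from E. coli extract was captured on streptavidin flash plates (Bmax ~4000 cpm) at 4 °C overnight. Test ligand dilutions were mixed with 5 nM [3H]T0901317 tracer solution and incubated on the plates overnight at 4 °C; bound radioactivity was counted after washing.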

For test [2], the target named is T2, human LXRα (Homo sapiens, UniProt Q13133).
T2 construct: biotin (biotinylated); made in house; host or cells: E. coli (crude extract)
T2 sequence (Q13133 1-447): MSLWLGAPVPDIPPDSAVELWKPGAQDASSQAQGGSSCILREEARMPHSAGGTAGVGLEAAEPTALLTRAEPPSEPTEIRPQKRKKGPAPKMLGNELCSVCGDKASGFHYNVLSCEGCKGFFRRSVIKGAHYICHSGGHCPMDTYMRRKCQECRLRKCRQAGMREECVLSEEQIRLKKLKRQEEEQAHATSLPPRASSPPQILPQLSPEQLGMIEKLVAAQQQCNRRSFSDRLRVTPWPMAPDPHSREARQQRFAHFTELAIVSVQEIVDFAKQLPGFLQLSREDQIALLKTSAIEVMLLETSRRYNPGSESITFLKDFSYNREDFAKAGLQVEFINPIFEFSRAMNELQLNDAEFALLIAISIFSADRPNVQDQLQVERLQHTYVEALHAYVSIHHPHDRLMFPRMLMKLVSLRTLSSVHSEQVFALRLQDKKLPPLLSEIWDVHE
Put plainly: Ligand-binding test procedure for human LXRα (3H T0901317 tracer, flash plates). The note with it: biotinylated hLXRα from E. coli extract; tracer 3H T0901317. The essentials:
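Biotinylated hLXRα from E. coli extract (50 mM Tris) captured on streptavidin flash plates overnight at 4 °C. Compound dilution series mixed with 5 nM [3H]T0901317 (concentration before mixing), incubated overnight at 4 °C; wells aspirated, washed and remaining radioactivity counted.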

For test [3], the system named is ABCA1 gene. Put plainly: Quantitative analysis of ABCA1 gene regulation in THP-1 cells (real-time PCR). Format: cell-based, human. To be noted: for EC50: read-out: EC50 ABCA1; for Emax: LXR agonist reference at 1.0 uM as positive control, read-out: Agonism ABCA1. On the procedure:
III. Quantitative Analysis of ABCA1 Gene Regulation in THP-1 Cells. The compounds of formula (I) effect on the regulation of the ABCA1 gene was evaluated using the following procedure. Materials and Methods Cell culture: The THP-1 monocytic cell line (ATCC #TIB-202) was obtained from American Type Culture Collection (Manassas, Va.) and cultured in RPMI 1640 medium (Gibco, Carlsbad, Calif.) containing 10% FBS, 2 mM L-glutamine, and 55 uM beta-Mercaptoethanol (BME). […] Louis, Mo.) for three days to induce differentiation into adherent macrophages. Differentiated THP-1 cells were treated with test compounds or ligands dissolved in DMSO (Sigma, D-8779) in culture medium lacking phorbal ester. […] Dose response effects were measured in duplicate, in the range of 0.001 to 30 micromolar concentrations and treated cells were incubated for an additional 18 hrs prior to RNA isolation. Unstimulated cells treated with vehicle were included as negative controls on each plate. […] L., J. Med. Chem. (2000), 45:1963-1966.). Results of antagonist analysis are expressed as % antagonism and IC50 (in μM). RNA isolation and quantitation: Total cellular RNA was isolated from treated cells cultured in 96-well plates using PrepStation 6100 (Applied Biosystems, Foster City, Calif.), according to the manufacturer's recommendations. RNA was resuspended in ribonuclease-free water and stored at -70° C. prior to analysis. RNA concentrations were quantitated with RiboGreen test procedure, #R-11490 (Molecular Probes, Eugene, Oreg.). Gene expression analysis: Gene-specific mRNA quantitation was performed by real-time PCR with the Perkin Elmer Corp. chemistry on an ABI Prism 7700 Sequence detection system (Applied Biosystems, Foster City, Calif.) according to the manufacturer's instructions. Samples (50-100 ng) of total RNA were assayed in duplicate or triplicate in 50 ul reactions using one-step RT-PCR and the standard curve method to estimate specific mRNA concentrations. Sequences of gene-specific primer and probe sets were designed with Primer Express Software (Applied Biosystems, Foster City, Calif.). […] Relative levels of ABCA1 mRNA are normalized using GAPDH mRNA or 18S rRNA probe/primer sets purchased commercially (Applied Biosystems, Foster City, Calif.). Statistics: Mean, standard deviation and statistical significance of duplicate evaluations of RNA samples were assessed using ANOVA, one-way analysis of variance using SAS analysis. Reagents: -GAPDH Probe and Primers-Taqman GAPDH Control Reagents 402869 or 4310884E 18S Ribosomal RNA-Taqman 18S Control Reagents 4308329 […] Qiagen Quantitect probe RT-PCR 204443.
(In general: In qPCR the cycle at which signal appears reflects the starting amount.)

Setting [4] is: Gene regulation by LXR (Human), differentiated THP-1 cells, 18 hrs, ABCA1 mRNA.
Where [5] appears, read: Gene regulation by LXR (Human), differentiated THP-1 cells, 18 hrs.

In general, IC50 refers to the concentration needed to halve the response being measured. Broadly, the EC50 is the midpoint of the concentration-response curve.

Take `CCc1nc2c(C(F)(F)F)cccn2c1-c1cccc(Oc2cccc(S(=O)(=O)CC)c2)c1` [Example 18, 2-ethyl-3-(3-(3-(ethylsulfonyl)phenoxy)phenyl)-8-(trifluoromethyl)imidazo[1,2-a]pyridine]: the figures for the IC50 in test [1] and in test [2] were 14 nM and 321 nM, respectively. Further, the EC50 in test [3] (setting [4]) was 110 nM. The Emax in test [3] (setting [5]) was 118%.

On to `CCCS(=O)(=O)c1cccc(Oc2cccc(-c3c(CC)nc4c(C(F)(F)F)cccn34)c2)c1` [Example 19, 2-ethyl-3-(3-(3-(propylsulfonyl)phenoxy)phenyl)-8-(trifluoromethyl)imidazo[1,2-a]pyridine], for which the IC50 amounted to 94 nM in test [1] and 975 nM in test [2]. For the same compound, the EC50 in test [3] (setting [4]) is 408 nM. Further, the Emax in test [3] (setting [5]) is 72%.

Take `CCc1nc2c(C(F)(F)F)cccn2c1-c1cccc(Oc2cccc(S(=O)(=O)C(C)C)c2)c1` [Example 20, 2-ethyl-3-(3-(3-(isopropylsulfonyl)phenoxy)phenyl)-8-(trifluoromethyl)imidazo[1,2-a]pyridine]: the IC50 was 14 nM in test [1] and 281 nM in test [2]. Besides, the EC50 in test [3] (setting [4]) was 70 nM. Also, in test [3] (setting [5]), the Emax worked out at 101%.

`CCc1nc2c(C(F)(F)F)cccn2c1-c1cccc(Oc2cccc(S(=O)(=O)CCCO)c2)c1` [Example 21]: the results for the IC50 in test [1] and in test [2] were 44 nM and 520 nM, respectively. The EC50 in test [3] (setting [4]) is 771 nM. In test [3] (setting [5]), the Emax was 111%.

For the compound `CCc1nc2c(C(F)(F)F)cccn2c1-c1cccc(Oc2cc(F)cc(S(C)(=O)=O)c2)c1` [Example 24, 2-ethyl-3-(3-(3-fluoro-5-(methylsulfonyl)phenoxy)phenyl)-8-(trifluoromethyl)imidazo[1,2-a]pyridine], the IC50 turned out to be 51 nM in test [1] and 636 nM in test [2]. Besides, in test [3] (setting [4]), the EC50 came out at 147 nM. Moreover, the Emax in test [3] (setting [5]) is 76%.

For the compound `CCc1nc2c(C#N)cccn2c1-c1cccc(Oc2cccc(S(=O)(=O)N(C)Cc3ccc(OC)cc3)c2)c1` [Example 46, 3-[3-(8-cyano-2-ethylimidazo[1,2-a]pyridin-3-yl)phenoxy]-N-(4-methoxybenzyl)-N-methylbenzenesulfonamide], the half-maximal inhibitory concentration (IC50) in test [1] turned out to be 15.4 nM; in test [2], 64.9 nM. Moreover, the EC50 in test [3] (setting [4]) amounted to 359 nM. Moreover, the Emax in test [3] (setting [5]) worked out at 92%.

`CCc1nc2c(Cl)cccn2c1-c1cccc(Oc2cccc(S(=O)(=O)NC)c2)c1` [Example 48, 3-[3-(8-chloro-2-ethylimidazo[1,2-a]pyridin-3-yl)phenoxy]-N-methylbenzenesulfonamide]: the figures for the IC50 in test [1] and in test [2] were 23 nM and 411 nM, respectively. Besides, the EC50 in test [3] (setting [4]) was 925 nM. For the same compound, the Emax in test [3] (setting [5]) was found to be 94%.

In the case of `CCc1nc2c(C#N)cccn2c1-c1cccc(Oc2cccc(S(=O)(=O)NC)c2)c1` [Example 51, 3-[3-(8-cyano-2-ethylimidazo[1,2-a]pyridin-3-yl)phenoxy]-N-methylbenzenesulfonamide], the values for the IC50 in test [1] and in test [2] were 79.6 nM and 1920 nM, respectively. Further, the EC50 in test [3] (setting [4]) is 1470 nM. The Emax in test [3] (setting [5]) came out at 93%.

On to `CC(C)c1nc2c(C(F)(F)F)cccn2c1-c1cccc(Oc2cccc(S(=O)(=O)CCCO)c2)c1` [Example 61, 3-[(3-{3-[2-isopropyl-8-(trifluoromethyl)imidazo[1,2-a]pyridin-3-yl]phenoxy}phenyl)sulfonyl]propan-1-ol], for which the IC50 in test [1] is 19.8 nM; in test [2] it was 456 nM. Besides, the EC50 in test [3] (setting [4]) was found to be 1640 nM. Also, the Emax in test [3] (setting [5]) was determined as 60%.

Regarding `CCc1nc2c(Cl)cccn2c1-c1cccc(Oc2cccc(S(C)(=O)=O)c2)c1` [Example 63, 8-chloro-2-ethyl-3-{3-[3-(methylsulfonyl)phenoxy]phenyl}imidazo[1,2-a]pyridine], the IC50 came out at 17.3 nM in test [1] and 642 nM in test [2]. Moreover, the EC50 in test [3] (setting [4]) worked out at 304 nM. Besides, in test [3] (setting [5]), the Emax turned out to be 96%.

`CCc1nc2c(Cl)cccn2c1-c1cccc(Oc2cccc(S(=O)(=O)CC)c2)c1` [Example 64, 8-chloro-2-ethyl-3-{3-[3-(ethylsulfonyl)phenoxy]phenyl}imidazo[1,2-a]pyridine]: the IC50 in test [1] was 15.1 nM; in test [2], 399 nM. Further, the EC50 in test [3] (setting [4]) is 640 nM. In addition, in test [3] (setting [5]), the Emax came out at 79%.

Take `CCc1nc2c(Cl)cccn2c1-c1cccc(Oc2cccc(S(=O)(=O)C(C)C)c2)c1` [Example 65, 8-chloro-2-ethyl-3-{3-[3-(isopropylsulfonyl)phenoxy]phenyl}imidazo[1,2-a]pyridine]: the IC50 in test [1] was 16.9 nM; in test [2] it was 315 nM. In addition, the EC50 in test [3] (setting [4]) came to 1290 nM. In addition, the Emax in test [3] (setting [5]) is 113%.

Consider `CCc1nc2c(C(F)(F)F)cccn2c1-c1cccc(Cc2cccc(S(C)(=O)=O)c2)c1` [Example 100, 2-ethyl-3-{3-[3-(methylsulfonyl)benzyl]phenyl}-8-(trifluoromethyl)imidazo[1,2-a]pyridine], for which the Emax in test [3] (setting [5]) is 82%. Besides, in test [3] (Homo sapiens, THP-1, 18 h), the EC50 is 460 nM.

With `CS(=O)(=O)c1cccc(Oc2ccc(-c3c(-c4ccsc4)nc4c(C(F)(F)F)cccn34)cc2)c1` [Example 127, 3-{4-[3-(methylsulfonyl)phenoxy]phenyl}-2-thiophen-3-yl-8-(trifluoromethyl)imidazo[1,2-a]pyridine], in test [1], the IC50 is 113 nM. For the same compound, in test [3] (setting [4]), the EC50 turned out to be 480 nM. Further, in test [3] (setting [5]), the Emax was 25%.

Regarding `CS(=O)(=O)c1cccc(Oc2cccc(-c3c(CN4CCCCC4)nc4c(C(F)(F)F)cccn34)c2)c1` [Example 131, 3-{3-[3-(methylsulfonyl)phenoxy]phenyl}-2-(piperidin-1-ylmethyl)-8-(trifluoromethyl)imidazo[1,2-a]pyridine], the Emax in test [3] (setting [5]) stood at 100%. Further, the EC50 in test [3] (Homo sapiens, THP-1, 18 h) was determined as 43 nM.

With `CS(=O)(=O)c1cccc(Oc2cccc(-c3c(CN4CCSC4)nc4c(C(F)(F)F)cccn34)c2)c1` [Example 133, 3-{3-[3-(methylsulfonyl)phenoxy]phenyl}-2-(1,3-thiazolidin-3-ylmethyl)-8-(trifluoromethyl)imidazo[1,2-a]pyridine], the Emax in test [3] (setting [5]) was 98%. The EC50 in test [3] (Homo sapiens, THP-1, 18 h) turned out to be 10 nM.
